“Also recorded” adds a separate entry of the source.

In one test the test system is G30 tumors. As to the kind of experiment: DCE-MRI analysis of blood flow within a murine glioblastoma (k-trans). Format: in vivo, mouse. As to conditions: 24 hours after BiA 10 mg/kg IP vs pretreatment. As for the experimental part: Magnetic Resonance Imaging (MRI): MRI was performed at the BWH Imaging Core on a 7T Bruker MRI apparatus. G30 tumors were implanted (50,000 cells per mouse) intracranially into the striatum using a stereotactic frame. After three weeks of tumor growth, MRI images were collected according to BWH Imaging Core protocols using Gadolinium contrast enhancement. After the first image was collected, BiA was administered IP at 10 mg/kg), and imaging were performed again.
The present study investigated whether the indirubin derivative, BiA (see FIG. 1A and FIG. 1B), can disrupt the permeability of the BTB. Blood flow within a murine glioblastoma was assessed using dynamic contrast-enhanced magnetic resonance imaging (DCE-MRI) analysis and as measured by k^trans.
K^trans is calculated by measuring the accumulation of gadolinium-based contrast agent in the extravascular-extracellular space. Interpretation of k^trans varied according to permeability and blood flow. In situations where permeability is very low (near-intact blood brain barrier), then k^trans is a useful measure of permeability, whereas in situations where permeability is very high (disrupted blood brain barrier), then k^trans will reflect perfusion.

Test [1] concerns G9-PCDH, G34-PCDH and GL-261 murine GBM tumors. As to the kind of experiment: ICP-MS platinum quantification in GBM tumor-bearing mice after BIA and cisplatin. Format: in vivo. How it is done: (§1) In vivo studies: For intra-cranial tumor implantation, GBM neuro-spheres were grown to 70% confluency before dissociated into single cell on the day of surgery. 50,000 cells were resuspended in 3 μl of sterile PBS and injected intracranially into the striatum (2 mm right hemisphere, 1 mm frontal, 3 mm depth from bregma) of mice under anesthesia and stereo-tactically fixed. Tumors were left to grow for approximately 2-3 weeks, depending the cell line. Animals were randomized to treatment groups. BIA injections consisted of 20 mg/kg (i.p.), except if indicated otherwise. PPRX-1701 was administered at 20 mg/kg (i.v.) via lateral tail-vein. Cisplatin injections were performed at 5 mg/kg (maximum tolerated dose, i.p.). All GBM tumor murine studies involved continuous condition and weight assessments, with endpoint considered when 20% of weight loss and/or moderate-to-high grimace scale and neurological symptoms were observed.
(§2) ICP-MS for platinum quantification: Mice treated with cisplatin after BIA administration were euthanized, intra-cardially perfused with PBS and tissue harvested to be stored at −80 degrees Celsius. Tissue was processed and platinum (Pt195) was quantified using an Agilent 7900 ICP-MS, as previously described.^42

Test [2] relates to G9-PCDH, G34-PCDH and GL-261 GBM tumors. The description is as above. The conditions noted are these: G9-PCDH xenograft, increasing BIA doses. Format: in vivo. As for the experimental part:
as §1, §2

Another test deals with G34 GBM cells. As to the kind of experiment: Real-time PCR in G34-PCDH neurosphere GBM cells. Type of test: cell-based, human. As to conditions: BIA 2 μM, 24 hours. How it is done: Real-time PCR: Total RNA from GBM and HCMEC/D3 cells was obtained and processed as indicated above. For cDNA generation, we used 1 μg of RNA and processed with the iScript™ cDNA synthesis kit (BioRad), following the protocol indicated by the provider. All primers were designed using NCBI Primer-Blast tool. Detailed information on primer sequences can be found in FIG. 25 (Supplementary Table 3). Gene expression levels were quantified using PowerUp SYBR Green Master Mix (Applied Biosciences) on QuantStudio 6 Pro System (Applied Biosciences), normalized by housekeeping gene GAPDH expression and represented as relative expression using comparative ΔΔCT method.
For orientation: Quantitative PCR measures a nucleic acid by following its amplification.

Test [3] deals with HCMEC/D3 cells. Briefly: Immunofluorescence staining of HCMEC/D3 endothelial cells. Type of test: cell-based, human. The conditions noted are these: BIA 1 μM. As for the experimental part: Immunofluorescent (IF) staining: For IF staining of HCMEC/D3 endothelial cells, we coated 8-well Nunc™ Lab-Tek™ chamber slides (Thermo Fisher Scientific) with 1× Type 1 rat-tail collagen (Corning) following provider's instructions. Then, we plated at a density of 50,000 cells/well and left in culture for 72 hours to allow for barrier formation. Next, we treated with BIA or control for 24-48 hours. Cells were then fixed with 10% formalin (Thermo Fisher Scientific) for 10 minutes, permeabilized for 30 minutes using 0.01% Triton X-100 and blocked with 0.1% normal donkey serum (Calbiochem) for 1 hour in 0.025% Tween-20 (Thermo Fisher Scientific) in Phosphate-Buffered Saline (PBS) (Gibco). Then, primary antibodies were added: mouse anti-CDH5 (VE-cadherin, BioLegend) 1:100, rabbit antiClaudin-5 (Thermo Fisher Scientific) 1:100, and mouse anti-ZO-1 (Invitrogen) 1:100, and incubated overnight in the cold. Next day, secondary antibodies were used for 2 hours at room temperature: Alexa Fluor 594 anti-mouse (1:500), Alexa Fluor 594 anti-rabbit (1:500), and Alexa Fluor 647 anti-mouse (1:500), all of these Thermo Fisher Scientific. For cytoskeleton staining Phalloidin-iFluor 488 (Abcam) 1:1000 for 30 minutes and nuclei staining using Hoechst 33342 (Thermo Fisher Scientific) 1:1000 for 5 minutes, at room temperature.

The subject of the next test is HBMEC cells. Briefly: Trans-endothelial electrical resistance (TEER) of HBMEC monolayers. Format: cell-based, human. As for the experimental part:
Trans-endothelial electrical resistance: HCMEC/D3 or HBMEC cells were plated in 8W10E+ PET 8-well arrays (Applied Biophysics) at a density of 100,000 cells/well in 500 μl. These arrays were placed in a pre-stabilized ECIS Z-Theta instrument (Applied Biophysics). Using the ECIS Z-Theta software (Applied Biophysics), measurements were set to 4000 and 64000 Hz every 30 minutes. […] Cells would then be treated with BIA and left to grow up to 5 days, with frequent drug-containing media re-addition for maintenance of the culture. Resistance (W) and capacitance (nF) were recorded and plotted.

Test [4] has as its system HCMEC/D3 cells. Briefly: Western blot of HCMEC/D3 cells. Format: cell-based, human. How it is done: Western blot: HCMEC/D3 and GBM cell lysates were collected in RIPA Buffer (Thermo Fisher Scientific) supplemented with 1× protease/phosphatase inhibitor cocktail (Cell Signaling). Lysate collection from murine tumor tissue samples (˜30 mg) was performed under homogenization using 23G and 26G needles. Total protein concentration was measured using Pierce 660 nm Protein Assay Reagent (Thermo Fisher Scientific) at 660 nm absorbance in Molecular Devices SpectraMax M2 plate reader. Samples were incubated in 1× Laemmli sample buffer (BioRad) at 95 degrees Celsius for 5 minutes before loading onto 10% Mini-PROTEAN TGX precast protein gel (BioRad). PageRuler Plus Pre-stained Protein Ladder (Thermo Fisher Scientific) was used as ladder. Appropriate secondary antibodies, Goat anti-mouse-HRP (Sigma) or Goat anti-rabbit-HRP (Sigma) in 5% milk in 1×TBST with 1:5000 dilution.

As for `CC(=O)ON=C1C(=C2C(=O)Nc3cc(Br)ccc32)Nc2ccccc21` [BIA, 6-bromoindirubin acetoxime], the “k-trans values in murine glioblastoma” value in the test with G30 tumors is listed as “significantly increased; also recorded: increased perfusion”. The “platinum uptake in contralateral healthy brain regions” value in test [1] (cisplatin 5 mg/kg 24 hours after BIA) is listed as “no significant difference of uptake”. Also, in test [1] (cisplatin 5 mg/kg 24 hours after BIA, 5 hours circulation), the “cisplatin (platinum) accumulation in tumor after BIA pre-treatment” value is given as “significant cisplatin intra-tumoral accumulation”. In addition, the “platinum accumulation in peripheral tissues such as heart or liver” value in test [1] (cisplatin 24 hours after BIA) is given as “no difference in platinum accumulation”. In test [2], the “BIA dose showing significant cisplatin accumulation in the tumor” value is “above 10 mg/kg”. Moreover, in the test on G34 GBM cells, the CDH5 expression entry is reported as “reduced the expression”; the “WNT7B and S1PR3 expression” value is listed as “diminishment”. Also, in the test with HCMEC/D3 cells [3] (24-48 hrs), the “CDH5 immunofluorescence at the membrane periphery” value is “marked decrease”. Further, in the test with HCMEC/D3 cells [3] (48 hours), the Claudin-5 immunofluorescence result is “no difference” and the ZO-1 immunofluorescence result was “marked reduction”. In the test with HBMEC cells, the “barrier establishment (TEER), BIA added 24 hours after plating” value is on record as “prevented barrier establishment”. Further, the “time of maximum reduction of CDH5 protein levels post-BIA addition” value in the test on HCMEC/D3 cells [4] (1 μM BIA, remained for 2 days) is 12 h. Further, the “protein levels of CAV1 or MFSD2A” value in the test with HCMEC/D3 cells [4] (BIA 1 μM, 48 hours) is “did not show any changes of protein levels”.

These data come from patent US20240358678A1, “METHODS AND COMPOSITIONS FOR ENHANCING CHEMOTHERAPEUTIC DRUG UPTAKE INTO BRAIN TUMORS” (Brown University, priority 2023, published 2024).
